Measurements from US8604243B2, “Fluorescent ion indicators for cadmium and lanthanide ion detection” (Life Technologies Corporation, priority 2005, dated 2013).

Key:
Assay type in all cases: binding
[1] = Fluorescence titration of indicator with mercury ions in cuvettes
Procedure: (§1) A dye stock (5.0×10^−4 M) solution of Compound 109 was prepared in DMSO. Lanthanide, Lead, cadmium and mercury ion solutions from 0-40 nM were prepared in disposable cuvettes by diluting a 100 mM metal ion stock solutions to a final volume of 2 mL with 100 mM MOPS (pH7). For the lanthanide titration, dye stock was diluted to give a final concentration of 50 nM. For the cadmium titration, dye stock was added to give a final concentration of 2.5×10^−7 M. For the mercury titrations, dye stock was added to give a final concentration of 2.5×10^−7 M. Samples were excited at 492 nm and fluorescence was recorded at 517 nm.

[2] = Fluorescence titration of indicator with calcium ions; conditions: for Kd: Table 3 binding constant, read-out: Kd Ca^2+; for F = F(bind)/F0, Ca^2+: fluorescent response to binding, in brackets
[3] = Fluorescence titration of indicator with lead ions; conditions: for Kd: Table 3 binding constant, read-out: Kd Pb^2+; for F = F(bind)/F0, Pb^2+: fluorescent response to binding, in brackets
Procedure: as §1

[4] = Fluorescence titration of indicator with lanthanide ions in cuvettes; conditions: for F = F(bind)/F0, La^3+: fluorescent response to binding, in brackets
Procedure: as §1

[5] = Fluorescence titration of indicator with zinc ions; conditions: for Kd: Table 3 binding constant, read-out: Kd Zn^2+; for F = F(bind)/F0, Zn^2+: fluorescent response to binding, in brackets
[6] = Fluorescence titration of indicator with cadmium ions in cuvettes; conditions: for F = F(bind)/F0, Cd^2+: fluorescent response to binding, in brackets
Procedure: as §1

[7] = Fluorescence titration of indicator with manganese ions; conditions: for Kd: Table 3 binding constant, read-out: Kd Mn^2+; for F = F(bind)/F0, Mn^2+: fluorescent response to binding, in brackets
[8] = Table 3 binding constant, read-out: Kd La^3+
[9] = Table 3 binding constant, read-out: Kd Cd^2+

| Compound | Kd ([1]; 100 mM MOPS pH7, dye 2.5×10^−7 M, excited 492 nm, recorded 517 nm, read-out: Kd mercury (Hg2+)) | Kd ([1]; Table 3 binding constant, read-out: Kd Hg^2+) | F = F(bind)/F0, Hg^2+ ([1]; fluorescent response to binding, in brackets) | Kd [2] | F = F(bind)/F0, Ca^2+ [2] | Kd [3] | F = F(bind)/F0, Pb^2+ [3] | Kd ([4]; 100 mM MOPS pH7, dye 50 nM, excited 492 nm, recorded 517 nm, read-out: Kd lanthanide (La(III))) | Kd [4, 8] | F = F(bind)/F0, La^3+ [4] | Kd [5] | F = F(bind)/F0, Zn^2+ [5] | Kd ([6]; 100 mM MOPS pH7, dye 2.5×10^−7 M, excited 492 nm, recorded 517 nm, read-out: Kd cadmium (Cd(II))) | Kd [6, 9] | F = F(bind)/F0, Cd^2+ [6] | Kd [7] | F = F(bind)/F0, Mn^2+ [7] |
| --- | --- | --- | --- | --- | --- | --- | --- | --- | --- | --- | --- | --- | --- | --- | --- | --- | --- |
| O=C([O-])CN(CC(=O)[O-])c1ccccc1OCCOCCOc1cc(-c2c3cc(F)c(=O)cc-3oc3cc([O-])c(F)cc23)ccc1N(CC(=O)[O-])CC(=O)[O-].[K+].[K+].[K+].[K+].[K+] [Compound 109] | 2160 nM | 2160 nM | 20 | 21400 nM | 68 | 38900 nM | 20 | 10.3 nM | 10 nM | 47 | 27100 nM | 8.8 | 61 nM | 61 nM | 11 | – | – |
| CN(C)c1ccc2c(-c3ccc(N(CC(=O)[O-])CC(=O)O)c(OCCOCCOc4ccccc4N(CC(=O)O)CC(=O)O)c3)c3ccc(=[N+](C)C)cc-3oc2c1 [Compound 112] | – | – | – | 44900 nM | 161 | 5440 nM | 29 | – | 359 nM | 36 | 35800 nM | 17 | – | 395 nM | 39 | 80200 nM | 1.82 |
| O=C([O-])CN(CC(=O)O)c1ccc(C2=c3cc4c5c(c3Oc3c2cc2c6c3CCCN6CCC2)CCC[N+]=5CCC4)cc1OCCOCCOc1ccccc1N(CC(=O)O)CC(=O)O [Compound 115] | – | – | – | 67800 nM | 114 | 189 nM | 33 | – | 352 nM | 32 | 28600 nM | 20 | – | 331 nM | – | 136000 nM | 2.5 |
